Source: ChEMBL document CHEMBL6092169, “Development of selective heterocyclic PDE4 inhibitors for treatment of psoriasis” (Eur J Med Chem, 2024)

What was measured:
[1] = test system: RAW264.7; experiment: Anti-inflammatory activity in mouse RAW264.7 cells assessed as inhibition of LPS-induced TNF-alpha production at 10 uM incubated for 24 hrs by ELISA relative to control; format: functional; design: scale not given: the % may be the effect or the level left
[2] = molecular target: T1, 3',5'-cyclic-AMP phosphodiesterase 4D (Homo sapiens, UniProt Q08499); experiment: Inhibition of full-length PDE4D2 (unknown origin) using FAM-cAMP as substrate at 1 uM preincubated with compound for 15 mins followed by substrate addition and measured after 30 mins by fluorescence polarization based IMAP assay relative to control; conditions: time 45.0 min
[3] = molecular target: T1, 3',5'-cyclic-AMP phosphodiesterase 4D; experiment: Inhibition of full-length PDE4D2 (unknown origin) using FAM-cAMP as substrate preincubated with compound for 15 mins followed by substrate addition and measured after 30 mins by fluorescence polarization based IMAP assay
[4] = test system: RAW264.7; experiment: Anti-inflammatory activity in mouse RAW264.7 cells assessed as inhibition of LPS-induced TNF-alpha production incubated for 24 hrs by ELISA; format: functional, cell-based; conditions: RAW264.7, 24 h

T1 sequence (Q08499 whole entry): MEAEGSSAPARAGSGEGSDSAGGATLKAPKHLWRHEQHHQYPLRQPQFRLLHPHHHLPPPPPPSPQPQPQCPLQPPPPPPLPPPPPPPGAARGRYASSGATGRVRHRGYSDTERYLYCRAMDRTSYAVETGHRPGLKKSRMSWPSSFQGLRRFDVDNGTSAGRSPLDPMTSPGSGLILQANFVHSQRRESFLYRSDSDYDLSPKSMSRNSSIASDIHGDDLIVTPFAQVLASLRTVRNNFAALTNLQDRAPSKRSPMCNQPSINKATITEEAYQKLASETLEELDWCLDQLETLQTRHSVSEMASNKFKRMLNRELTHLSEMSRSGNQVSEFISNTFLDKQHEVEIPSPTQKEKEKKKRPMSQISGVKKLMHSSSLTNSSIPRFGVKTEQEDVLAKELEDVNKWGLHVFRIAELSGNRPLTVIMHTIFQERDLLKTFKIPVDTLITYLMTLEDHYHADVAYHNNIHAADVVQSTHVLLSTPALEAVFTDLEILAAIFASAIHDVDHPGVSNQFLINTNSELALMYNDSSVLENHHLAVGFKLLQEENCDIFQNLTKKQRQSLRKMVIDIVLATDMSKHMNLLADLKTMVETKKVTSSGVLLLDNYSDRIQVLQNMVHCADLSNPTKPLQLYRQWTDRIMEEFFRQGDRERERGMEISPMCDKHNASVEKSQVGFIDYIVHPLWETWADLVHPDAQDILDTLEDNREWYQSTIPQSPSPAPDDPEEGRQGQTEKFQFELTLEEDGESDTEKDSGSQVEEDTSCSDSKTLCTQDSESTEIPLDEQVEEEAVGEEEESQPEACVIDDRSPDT

SMILES	Activity [1] [%]	inhibition [2] [%]	IC50 [3] [nM]	IC50 [4] [nM]
O=C(Nc1ccccc1)c1c[nH]c(-c2ccc(OC(F)F)c(OCC3CC3)c2)n1	9.32	64.9		
O=C(Nc1nccs1)c1coc(-c2ccc(OC(F)F)c(OCC3CC3)c2)n1	11.17	57		
O=C(NCc1ccc(F)cc1F)c1c[nH]c(-c2ccc(OC(F)F)c(OC(F)F)c2)n1	14.32	88.4		
O=C(NCc1c(F)cccc1F)c1c[nH]c(-c2ccc(OC(F)F)c(OCC3CC3)c2)n1	13.88		15.9	
O=C(NCc1cc(F)ccc1F)c1c[nH]c(-c2ccc(OC(F)F)c(OC(F)F)c2)n1	14.69	93.6		
O=C(Nc1nc2ccccc2s1)c1coc(-c2ccc(OC(F)F)c(OCC3CC3)c2)n1	25.84	33.4		
O=C(O)c1coc(-c2ccc(OC(F)F)c(OCC3CC3)c2)n1	10.47	46.2		
O=C(O)c1c[nH]c(-c2ccc(OC(F)F)c(OCC3CC3)c2)n1	4.22	35.7		
O=C(Nc1nccs1)c1c[nH]c(-c2ccc(OC(F)F)c(OCC3CC3)c2)n1		74.3		59900
O=C(Nc1ccc2[nH]ccc2c1)c1c[nH]c(-c2ccc(OC(F)F)c(OCC3CC3)c2)n1	21.36	83.5		
O=C(NCc1ccc(F)cc1F)c1c[nH]c(-c2ccc(OC(F)F)c(OCC3CC3)c2)n1	5.16		4.74	
COc1ccc(CNC(=O)c2c[nH]c(-c3ccc(OC(F)F)c(OCC4CC4)c3)n2)cn1	7.74	94.1		
O=C(NCc1ccc2ccccc2c1)c1c[nH]c(-c2ccc(OC(F)F)c(OCC3CC3)c2)n1	9.03	82.3		
Cn1cc(NC(=O)c2c[nH]c(-c3ccc(OC(F)F)c(OCC4CC4)c3)n2)cn1	27.5	78.8		
COc1cc(-c2nc(C(=O)NCc3c(F)cccc3F)c[nH]2)cc(OC)c1OC(F)F		33.3		
Cc1ccc(-c2nc(C(=O)Nc3ccncc3)c[nH]2)cc1C	11.94	3.4		
O=C(Nc1ccncc1)c1c[nH]c(-c2ccc(OC(F)F)c(OCC3CC3)c2)n1	15.37	99.3		
O=C(NCc1ccccc1)c1coc(-c2ccc(OC(F)F)c(OCC3CC3)c2)n1	8.13	89.8		
O=C(NCc1cnccn1)c1c[nH]c(-c2ccc(OC(F)F)c(OCC3CC3)c2)n1	16.03	95.9		
